Earlier results on 3 compounds are cited in US20260345619A1 (Principia Biopharma Inc., priority 2023, published 2026).

Where two headings read alike, the source gives them in different places.

In data set [1] the test system is 251 kinases sharing a common cysteine in their active site. The following applies: 1 μM; panel of 251 kinases; cited from earlier work.
The conditions of data set [2]: cited from earlier work.

As to `C=CC(=O)N1CCC[C@@H](n2nc(-c3ccc(Oc4ccccc4)cc3)c3c(N)ncnc32)C1` [ibrutinib, reference compound], the “number of kinases inhibited (>90% inhibition)” value in data set [1] is reported as 21 kinases. On to benralizumab: anti-IL5 receptor, for which the efficacy entry in data set [2] (severe asthma, eosinophilic phenotype) is on record as “have shown efficacy”. Turning to “omalizumab: anti-immunoglobulin E (IgE) agent”, the black box warning result in data set [2] (in vivo) is “black box warning of potential for anaphylaxis”. Also, the efficacy result in data set [2] (severe, corticosteroid-refractory allergy-induced asthma) was “has shown efficacy”.
